Assay results: US20100279942A1, “METHODS FOR TREATING MOTOR NEURON DISEASE” (priority 2004, published 2010)

Tests used:
[1] = tested on: F11 cells transformed with SOD1 mutant (A4T-SOD1, G85R-SOD1, G93R-SOD1) genes; experiment: Neuronal cell death test, Trypan blue exclusion assay, F11 cells transformed with SOD1 mutant genes; type: cell-based, rat/mouse hybrid cell; conditions: for effect of kinase inhibitor on neuroprotective effect of ADNF: 100 nM ADNF, 10 nM wortmannin, 100 μM genistein, 50 μM PD98059, 20 μM SB203580, 1 μM AG490, 5 μM KN93, 10 μM HA1004, 72 hours
Protocol: F11 cell, the hybrid cell of rat embryonic day 13 (E13) primary cultured neuronal cell with mouse neuroblastoma NTG18 cell, was cultured in Ham's F-12 medium (Life Technologies, Gaithersburg, Md.) containing 18% FBS (Hyclone, Logan, Utah) and antibiotics as previously reported (Platika D, et al., 1985, Proc Natl Acad Sci USA 82: 3499-3503; Yamatsuji T, et al., 1996, Science 272: 1349-1352; Huang P, et al., 2000, Mol Hum Reprod 6: 1069-1078; and Niikura T, et al., 2001, J Neuroscience, 21: 1902-1910).
The F11 cells (7×10^4 cells/well, 6-well plate, 12- to 16-hour culture in Ham's F-12 (18% PBS) medium) were transformed with wild-type or SOD1 mutant (A4T, G85R, and G93R) genes by lipofection (0.5 μg of each SOD1 gene; 1 μl of LipofectAMINE; 2 μl of PLUS Reagent) under serum-free conditions for 3 hours and cultured for 2 hours in Ham's F-12 (18% PBS) medium. The medium was replaced by Ham's F-12 (10% PBS) in the presence or absence of ADNF. After 72 hours of the transformation, cell mortality was measured by Trypan blue exclusion assay as previously reported (Hashimoto Y, et al., 2001, J Neurosci 21: 9235-9245; and Hashimoto Y, et al, 2001, Proc Natl Acad Sci USA 98: 6336-6341). […]
Intracellular signaling by ADNF was examined. F11 cells were transformed with pEF-BOS or SOD1 mutant (A4T-SOD1, G85R-SOD1, or G93R-SOD1) cDNA and reacted with 10 nM wortmannin (PI3 kinase inhibitor), 100 μM genistein (tyrosine kinase inhibitor), 50 μM PD98059 (MEK inhibitor), 20 μM SB203580 (p38 MAPK inhibitor), 1 μM AG490 (JAK kinase inhibitor), 5 μM KN93 (calcium/calmodulin-dependent kinase inhibitor), or 10 μM HA1004 (protein kinase A inhibitor) in the presence or absence of 100 nM ADNF. After 72 hours of the transformation, cell mortality was measured by Trypan blue exclusion assay.
The effect of KN93 on the neuroprotective action of ADNF was examined. […] After 72 hours of the transformation, cell mortality was measured by Trypan blue exclusion assay. […]

SOD1 proteins = experiment: Immunoblot analysis of SOD1 protein expression in transformed cells; type: cell-based, mouse and rat/mouse hybrid; conditions: KN93 or KN92 treatment; F11 cells
Protocol: Immunoblot analysis was conducted according to the previous report (Hashimoto Y, et al., supra, p. 6336-6341). To examine the protein expression of wild-type or SOD1 mutant genes, lysates from the cells transfected with each SOD1 gene were subjected to SDS-PAGE (20 μg/lane). After electrical blotting to a PVDF membrane, the membrane was blocked by a typical method and reacted with an anti-SOD1 antibody and then with a 1:5000-diluted horseradish peroxidase-conjugated anti-mouse IgG antibody (Bio-Rad Lab. Hercules, Calif., USA). The antibody-reactive bands were detected by ECL (Amersham Pharmacia Biotech, Uppsala, Sweden).

[2] = tested on: F11 cells transformed with SOD1 mutant (A4T-SOD1, G85R-SOD1, G93R-SOD1) genes; experiment: Neuronal cell death test, Trypan blue exclusion assay, F11 cells transformed with SOD1 mutant genes; type: cell-based, rat/mouse hybrid cell; conditions: 10 pM ADNF8, 72 hours
[3] = tested on: neuronal cell death caused by amyloid β; conditions: cited from earlier work
[4] = tested on: neuronal cell death induced by SOD1 mutant genes; conditions: Hashimoto et al.; cited from earlier work

Compound: N#C/C(=C/c1ccc(O)c(O)c1)C(=O)NCc1ccccc1 [AG490]
- effect of kinase inhibitor on neuroprotective effect of ADNF [1]: not affected

Compound: NC(N)=NCCNS(=O)(=O)c1cccc2cnccc12 [HA1004]
- effect of kinase inhibitor on neuroprotective effect of ADNF [1]: not affected

Compound: COc1ccc(S(=O)(=O)Nc2ccccc2CN(C)C/C=C/c2ccc(Cl)cc2)cc1 [KN92]
- influence on ADNF activity ([1]; 5 μM KN92, 100 fM ADNF): did not influence ADNF activity
- protein expression of SOD1 mutant detected by immunoblot (SOD1 proteins): not affected

Compound: COc1ccc(S(=O)(=O)N(CCO)c2ccccc2CN(C)C/C=C/c2ccc(Cl)cc2)cc1 [KN93]
- inhibition of neuroprotective action of ADNF ([1]; 50 nM KN93, 100 fM ADNF): partially inhibited
- effect of kinase inhibitor on neuroprotective effect of ADNF [1]: inhibited
- inhibition of neuroprotective action of ADNF ([1]; 1 μM KN93, 100 fM ADNF): almost completely inhibited
- influence on cell mortality at the control level ([1]; KN93 at any of the concentrations (10 nM to 5 μM)): no influence
- protein expression of SOD1 mutant detected by immunoblot (SOD1 proteins): not affected

Compound: COc1cccc(-c2cc(=O)c3ccccc3o2)c1N [PD98059]
- effect of kinase inhibitor on neuroprotective effect of ADNF [1]: not affected

Compound: C[S+]([O-])c1ccc(-c2nc(-c3ccncc3)c(-c3ccc(F)cc3)[nH]2)cc1 (stereo not shown) [SB203580]
- effect of kinase inhibitor on neuroprotective effect of ADNF [1]: not affected

Compound: O=c1c(-c2ccc(O)cc2)coc2cc(O)cc(O)c12 [genistein]
- effect of kinase inhibitor on neuroprotective effect of ADNF [1]: inhibited

Compound: ALLRSIPA [ADNF8, ADNF which lost one N-terminal amino acid residue]
- effectiveness relative to ADNF (fold less) ([1]; inhibition of neuronal cell death caused by SOD1 mutant genes): 100 fold
- inhibition of cell death caused by G93R-SOD1 [2]: completely inhibited cell death
- effect against neuronal cell death caused by amyloid β or TTX ([3]; Brenneman et al. 1998): totally ineffective

Compound: IPALDSLKPANEDQKIGIEI [IPAL peptide]
- influence on cell death caused by SOD1 mutant genes ([1]; 10 μM IPAL peptide): did not influence the cell death caused by the SOD1 mutant genes
- influence on cell death at the control level ([1]; 10 μM IPAL peptide itself, pEF-BOS): did not influence the cell death at the control level
- effect on inhibitory activity of ADNF against cell death caused by SOD1 mutant genes ([1]; 10 μM IPAL peptide, 100 fM ADNF, 72 hours): did not inhibit the inhibitory activity of ADNF
- effect on protective effect of ADNF on cell death induced by amyloid β ([3]; Zamostiano et al. 1999): inhibit the protective effect of ADNF

Compound: S14G Humanin (MAPRGFSCLLLLTGEIDLPVKRRA; Humanin; UniProt Q8IVG9 1-24, looked up, variant S14G) [HNG, comparison peptide reported to prevent Alzheimer's disease-associated neuronal cell death]
- cell mortality induced by SOD1 mutant genes ([1]; 10 nM HNG, A4T-, G85R-, G93R-SOD1, 72 hours): could not reduce the cell death induced by the SOD1 mutant genes
- neuronal cell death induced by SOD1 mutant genes [4]: fail to prevent neuronal cell death
- neuronal cell death caused by some Alzheimer's disease-associated disorders ([3]; Hashimoto et al.): prevent neuronal cell death
